{"source": "patent US20240317744A1", "about": "“Bicyclic Ureas As Kinase Inhibitors” (Incyte Corporation, priority 2023, published 2024)", "key": {"[1]": {"biological_target": "T1, pseudo-kinase domain (JH2, amino-acids 536-812) of human V617F mutant JAK2 (Homo sapiens, UniProt O60674, F794H/V617F/W659A/W777A)", "T1 construct": "pseudo-kinase domain (JH2, amino-acids 536-812 with 3 surface mutations W659A, W777A, F794H); His (C); purchased BPS Bioscience 79498; host or cells: baculovirus expression system", "T1 sequence (O60674 536-812 V617F/W659A/W777A/F794H)": "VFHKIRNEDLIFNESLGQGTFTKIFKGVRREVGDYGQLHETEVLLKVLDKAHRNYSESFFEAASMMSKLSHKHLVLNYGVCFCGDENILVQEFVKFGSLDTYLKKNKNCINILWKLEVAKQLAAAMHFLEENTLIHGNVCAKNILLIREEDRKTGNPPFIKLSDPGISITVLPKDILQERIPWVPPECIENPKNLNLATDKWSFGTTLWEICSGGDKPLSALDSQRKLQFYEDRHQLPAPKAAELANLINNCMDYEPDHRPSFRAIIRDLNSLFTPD", "experiment": "JAK2 LanthaScreen JH2-V617F Binding Assay", "details": "JAK2 JH2-V617F 0.26 nM, 50 nM tracer, 1 hour at 25° C.; read-out: JH2 BIND V617F", "procedure": "Example C. JAK2 LanthaScreen JH2-V617F Binding Assay\nJAK2 JH2-V617F binding assay utilizes pseudo-kinase domain (JH2, amino-acids 536-812 with 3 surface mutations W659A, W777A, F794H) of human V617F mutant JAK2 expressed as C-terminal His-Avi-tagged, biotinylated protein in a baculovirus expression system (BPS Bioscience, Catalog #79498). The assay was conducted in black 384-well polystyrene plates in a final reaction volume of 20 μL. JAK2 JH2-V617F (0.26 nM) was incubated with compounds (100 nL serially diluted in DMSO) in the presence of 50 nM Fluorescent JAK2-JH2 Tracer (MedChem Express Catalog #HY-102055) and 0.25 nM Streptavidin-Tb cryptate (Cisbio Part #610SATLB) in assay buffer (50 mM Tris, pH=7.5, 10 mM MgCl2, 0.01% Brij-35, 0.1% BSA, 1 mM EGTA, 5% Glycerol and 5 mM DTT). Non-specific binding was accessed in the presence of 2 mM ATP. After incubation for 1 hour at 25° C., LanthaScreen signals were read on a PHERAstar FS plate reader (BMG LABTECH). Data was analyzed with IDBS XLfit and GraphPad Prism 5.0 software using a four parameter dose response curve to determine IC50 for each compound."}, "[2]": {"biological_target": "catalytic domain (JH1, amino acids 808-1132) of human JAK2 (Homo sapiens, UniProt O60674)", "sequence (O60674 808-1132 limits assumed)": "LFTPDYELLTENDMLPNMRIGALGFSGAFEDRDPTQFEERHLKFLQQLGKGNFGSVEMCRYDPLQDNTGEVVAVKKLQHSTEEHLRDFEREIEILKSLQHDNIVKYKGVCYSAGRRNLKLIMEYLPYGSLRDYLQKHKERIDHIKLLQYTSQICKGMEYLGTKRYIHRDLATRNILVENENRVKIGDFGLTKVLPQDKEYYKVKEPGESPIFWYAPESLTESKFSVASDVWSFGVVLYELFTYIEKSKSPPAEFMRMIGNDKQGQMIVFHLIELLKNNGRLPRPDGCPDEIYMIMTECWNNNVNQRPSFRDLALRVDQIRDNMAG", "experiment": "JAK2 HTRF Enzyme Activity Assay", "type": "biochemical", "details": "ATP 30 µM, 60 minutes at 25° C.; read-out: V617F ENZ 30 UM"}}, "data": [{"smiles": "[2H]C([2H])([2H])n1c(=O)n([C@@H]2CC[C@](C)(NC(=O)CC)C2)c2cc(Nc3cc(C(C)(C)O)cc(-c4ncc(C(F)(F)F)s4)n3)ncc21", "note": "[Example 143, N-((1S,3R)-3-(6-((4-(2-Hydroxypropan-2-yl)-6-(5-(trifluoromethyl)thiazol-2-yl)pyridin-2-yl)amino)-3-(methyl-d3)-2-oxo-2,3-dihydro-1H-imidazo[4,5-c]pyridin-1-yl)-1-methylcyclopentyl)propionamide]", "values": [{"measurement": "IC50", "setting": "[1]", "result": "≤ 10", "unit": "nM"}, {"measurement": "IC50", "setting": "[2]", "result": "> 1000", "unit": "nM"}]}, {"smiles": "[2H]C([2H])([2H])n1c(=O)n([C@@H]2CC[C@@H](NC(=O)OC)C2)c2cc(Nc3ccc4nn(CC(C)(C)O)c(-c5cnn(C(F)(F)F)c5)c4n3)ncc21", "note": "[Example 122, Methyl ((1R,3R)-3-(6-((2-(2-hydroxy-2-methylpropyl)-3-(1-(trifluoromethyl)-1H-pyrazol-4-yl)-2H-pyrazolo[4,3-b]pyridin-5-yl)amino)-3-(methyl-d3)-2-oxo-2,3-dihydro-1H-imidazo[4,5-c]pyridin-1-yl)cyclopentyl)carbamate]", "values": [{"measurement": "IC50", "setting": "[1]", "result": "≤ 10", "unit": "nM"}, {"measurement": "IC50", "setting": "[2]", "result": "> 1000", "unit": "nM"}]}, {"smiles": "[2H]C1(NC(=O)OC)CC[C@@H](n2c(=O)n(C([2H])([2H])[2H])c3cnc(Nc4ccc5c(n4)c(-c4cnn(C(F)(F)F)c4)nn5CC(C)(C)O)cc32)C1", "note": "(single isomer, unassigned) [Example 125]", "values": [{"measurement": "IC50", "setting": "[1]", "result": "≤ 10", "unit": "nM"}, {"measurement": "IC50", "setting": "[2]", "result": "> 1000", "unit": "nM"}]}, {"smiles": "[2H]C([2H])([2H])n1c(=O)n([C@@H]2CC[C@]([2H])(NC(=O)OC)C2)c2cc(Nc3cc(-c4cnccc4C(F)(F)F)c4nc(C)c(-c5cnn(C(F)F)c5)n4n3)ncc21", "note": "[Example 160, Methyl ((1S,3R)-3-(6-((3-(1-(difluoromethyl)-1H-pyrazol-4-yl)-2-methyl-8-(4-(trifluoromethyl)pyridin-3-yl)imidazo[1,2-b]pyridazin-6-yl)amino)-3-(methyl-d3)-2-oxo-2,3-dihydro-1H-imidazo[4,5-c]pyridin-1-yl)cyclopentyl-1-d)carbamate]", "values": [{"measurement": "IC50", "setting": "[1]", "result": "≤ 10", "unit": "nM"}, {"measurement": "IC50", "setting": "[2]", "result": "> 1000", "unit": "nM"}]}, {"smiles": "[2H]C([2H])([2H])n1c(=O)n([C@H]2CC[C@@](C)(NC(=O)C3CC3)CC2)c2cc(Nc3cc(C(=O)N4CCOCC4)c4nn(C)c(-c5cnn(C(F)(F)F)c5)c4n3)ncc21", "note": "[Example 127, N-((1s,4s)-1-Methyl-4-(3-(methyl-d3)-6-((2-methyl-7-(morpholine-4-carbonyl)-3-(1-(trifluoromethyl)-1H-pyrazol-4-yl)-2H-pyrazolo[4,3-b]pyridin-5-yl)amino)-2-oxo-2,3-dihydro-1H-imidazo[4,5-c]pyridin-1-yl)cyclohexyl)cyclopropanecarboxamide]", "values": [{"measurement": "IC50", "setting": "[1]", "result": "≤ 10", "unit": "nM"}, {"measurement": "IC50", "setting": "[2]", "result": "> 1000", "unit": "nM"}]}, {"smiles": "[2H]C([2H])([2H])n1c(=O)n(C23CCC(C(N)=O)(CC2)C3)c2cc(Nc3cc(C(C)(C)O)cc(-c4ncc(C(F)(F)F)s4)n3)ncc21", "note": "[Example 141, 4-(6-((4-(2-Hydroxypropan-2-yl)-6-(5-(trifluoromethyl)thiazol-2-yl)pyridin-2-yl)amino)-3-(methyl-d3)-2-oxo-2,3-dihydro-1H-imidazo[4,5-c]pyridin-1-yl)bicyclo[2.2.1]heptane-1-carboxamide]", "values": [{"measurement": "IC50", "setting": "[1]", "result": "≤ 10", "unit": "nM"}, {"measurement": "IC50", "setting": "[2]", "result": "> 1000", "unit": "nM"}]}, {"smiles": "[2H]C([2H])([2H])n1c(=O)n([C@H]2C[C@H](NC(=O)OC)[C@@H](O)C2)c2cc(Nc3cc(C(C)(C)O)cc(-c4ncc(C(F)(F)F)s4)n3)ncc21", "note": "[Example 155, Methyl ((1S,2S,4S)-2-hydroxy-4-(6-((4-(2-hydroxypropan-2-yl)-6-(5-(trifluoromethyl)thiazol-2-yl)pyridin-2-yl)amino)-3-(methyl-d3)-2-oxo-2,3-dihydro-1H-imidazo[4,5-c]pyridin-1-yl)cyclopentyl)carbamate]", "values": [{"measurement": "IC50", "setting": "[1]", "result": "≤ 10", "unit": "nM"}, {"measurement": "IC50", "setting": "[2]", "result": "> 1000", "unit": "nM"}]}]}
